Assays:
PDK1 = molecular target: T1, PDK1 (Homo sapiens, UniProt O15530); assay: Test for the inhibition of PDK1 (flashplate, 33P-ATP); format: biochemical; conditions: His6-PDK1 3.4 nM, 4 μM ATP, 30° C., 60 min
T1 construct: His6 (N)
T1 sequence (O15530 51-556 limits assumed): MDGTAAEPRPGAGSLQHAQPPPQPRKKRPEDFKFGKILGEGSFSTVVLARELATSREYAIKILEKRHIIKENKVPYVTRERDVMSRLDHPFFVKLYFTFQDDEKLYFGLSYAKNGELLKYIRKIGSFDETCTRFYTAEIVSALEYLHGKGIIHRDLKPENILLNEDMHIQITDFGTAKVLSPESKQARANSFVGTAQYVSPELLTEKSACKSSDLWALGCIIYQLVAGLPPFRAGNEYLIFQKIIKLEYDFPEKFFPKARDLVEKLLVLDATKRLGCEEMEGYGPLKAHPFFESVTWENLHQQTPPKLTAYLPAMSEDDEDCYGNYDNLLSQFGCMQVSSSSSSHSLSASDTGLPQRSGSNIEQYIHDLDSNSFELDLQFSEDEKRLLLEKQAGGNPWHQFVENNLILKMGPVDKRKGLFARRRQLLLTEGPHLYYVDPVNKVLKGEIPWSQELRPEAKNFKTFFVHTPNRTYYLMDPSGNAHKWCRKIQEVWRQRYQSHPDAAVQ
In short: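 His6-PDK1(1-50) (3.4 nM) and a biotinylated peptide substrate (400 nM) were incubated 60 min at 30° C with 4 μM ATP containing ^33P-ATP and test compound. Incorporated radioactivity was counted after subtracting a 100 nM staurosporine blank and expressed as % of control; IC50 derived from these.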

[1] = test system: PDK1 kinase activity (phospho-T308-PKB) in PC3 cells; assay: Cellular testing of PDK1 kinase inhibitors in PC3 cells (Luminex, phospho-T308-PKB); format: cell-based; conditions: Homo sapiens, PC-3, 0.5 h, 30 min incubation, serum-free, read-out: IC50 PC3 cells [P-PKB T308]
Experimental: Method for the Cellular Testing of PDK1 Kinase Inhibitors in PC3 Cells.
The cellular assay for the determination of the PDK1 kinase activity is carried out as a Luminex assay in the 96-well format. PC3 cells are shown at 20,000 cells per well in 100 μl of medium (45% of […]/45% of Ham's F12/10% of FCS) and incubated on the following day for 30 min with a serial dilution of the test substance (7 concentrations) under serum-free conditions. The cells are subsequently lysed using 90 μl of lysis buffer (20 mM tris/HCl pH 8.0, 150 mM NaCl, 1% of NP40, 10% of glycerol, 1% of phosphatase inhibitor I, 1% of phosphatase inhibitor II, 0.1% of protease inhibitor cocktail III, 0.01% of benzonase) per well, and the lysates are separated off from insoluble cell constituents by means of centrifugation through a 96-well filter plate (0.65 μm). The lysates are incubated overnight at 4° C. with shaking with Luminex beads to which an anti-total PKB antibody is coupled. The detection is carried out on the following day by addition of a phospho-T308-PKB antibody and a species-specific peroxidase-labelled secondary antibody. The detection of phospho-T308-PKB is carried out by measurement in a Luminex100 instrument by determination of 100 events per cavity in a measurement time of 60 sec. As pharmacological blank, the signals obtained from cells which have been treated with 10 μM staurosporin are subtracted from all other batches. The control value used for maximum phosphorylation of PKB on T308 are the signals from cells which have only been treated with the solvent (0.3% of DMSO). The values of the batches treated with test substance are calculated therefrom as percentage of control, and IC50 values are determined by means of RS1.

Compound	IC50 (PDK1) [µM]	IC50 [1] [µM]
CCC(O)(c1ccncc1)c1cc(-c2c[nH]c3ncc(-c4cn[nH]c4)cc23)nc(N)n1 (stereo not shown) [A53, 1-{2-amino-6-[5-(1H-pyrazol-4-yl)-1H-pyrrolo[2,3-b]pyridin-3-yl]pyrimidin-4-yl}-1-pyridin-4-ylpropan-1-ol]	0.0019	0.692
Cn1cc(-c2cnc3[nH]cc(-c4cc(C(O)(c5ccccc5)C(F)(F)F)nc(N)n4)c3c2)cn1 (stereo not shown) [A69, 1-{2-amino-6-[5-(1-methyl-1H-pyrazol-4-yl)-1H-pyrrolo[2,3-b]pyridin-3-yl]-pyrimidin-4-yl}-2,2,2-trifluoro-1-phenylethanol]	0.15	0.24
Cn1cc(-c2cnc3[nH]cc(-c4cc(C(C)(O)c5cccc(F)c5)nc(N)n4)c3c2)cn1 (stereo not shown) [A105, 1-{2-amino-6-[5-(1-methyl-1H-pyrazol-4-yl)-1H-pyrrolo[2,3-b]pyridin-3-yl]-pyrimidin-4-yl}-1-(3-fluorophenyl)ethanol]	0.013	0.11
Cn1cc(-c2cnc3[nH]cc(-c4cc(C(C)(O)c5cccc(F)c5)nc(N)n4)c3c2F)cn1 (stereo not shown) [A106, 1-{2-amino-6-[4-fluoro-5-(1-methyl-1H-pyrazol-4-yl)-1H-pyrrolo-[2,3-b]pyridin-3-yl]pyrimidin-4-yl}-1-(3-fluorophenyl)ethanol]	0.026	0.0051
CCC(O)(c1cc[n+]([O-])cc1)c1cc(-c2c[nH]c3ncc(-c4cnn(C)c4)cc23)nc(N)n1 (stereo not shown) [A110, 1-{2-amino-6-[5-(1-methyl-1H-pyrazol-4-yl)-1H-pyrrolo[2,3-b]pyridin-3-yl]-pyrimidin-4-yl}-1-(1-oxypyridin-4-yl)propan-1-ol]	0.0054	8.2
COc1ccc(C(C)(O)c2cc(-c3c[nH]c4ncc(-c5cnn(C)c5)cc34)nc(N)n2)cn1 (stereo not shown) [A112, 1-{2-amino-6-[5-(1-methyl-1H-pyrazol-4-yl)-1H-pyrrolo[2,3-b]pyridin-3-yl]-pyrimidin-4-yl}-1-(6-methoxypyridin-3-yl)ethanol]	0.12	1.3
Cn1cc(-c2cnc3[nH]cc(-c4cc(C(C)(O)c5ccncn5)nc(N)n4)c3c2)cn1 (stereo not shown) [A113, 1-{2-amino-6-[5-(1-methyl-1H-pyrazol-4-yl)-1H-pyrrolo[2,3-b]pyridin-3-yl]-pyrimidin-4-yl}-1-pyrimidin-4-ylethanol]	0.031	7.3
CC(C)n1cc(-c2cnc3[nH]cc(-c4cc(C(C)(O)c5cccc(F)c5F)nc(N)n4)c3c2)cn1 (stereo not shown) [A114, 1-{2-amino-6-[5-(1-isopropyl-1H-pyrazol-4-yl)-1H-pyrrolo[2,3-b]pyridin-3-yl]-pyrimidin-4-yl}-1-(2,3-difluorophenyl)ethanol]	0.039	0.014
CC(C)C(O)(c1cccc(F)c1)c1cc(-c2c[nH]c3ncc(-c4cnn(C)c4)cc23)nc(N)n1 (stereo not shown) [A115, 1-{2-amino-6-[5-(1-methyl-1H-pyrazol-4-yl)-1H-pyrrolo[2,3-b]pyridin-3-yl]-pyrimidin-4-yl}-1-(3-fluorophenyl)-2-methylpropan-1-ol]	0.056	0.11
CCCC(O)(c1cccc(F)c1)c1cc(-c2c[nH]c3ncc(-c4cnn(C)c4)cc23)nc(N)n1 (stereo not shown) [A116, 1-{2-amino-6-[5-(1-methyl-1H-pyrazol-4-yl)-1H-pyrrolo[2,3-b]pyridin-3-yl]-pyrimidin-4-yl}-1-(3-fluorophenyl)butan-1-ol]	0.044	0.28
CCCC(OCOC)(c1cccc(F)c1)c1cc(-c2c[nH]c3ncc(-c4cnn(C)c4)cc23)nc(N)n1 (stereo not shown) [A117, 4-[1-(3-fluorophenyl)-1-methoxymethoxybutyl]-6-[5-(1-methyl-1H-pyrazol-4-yl)-1H-pyrrolo[2,3-b]pyridin-3-yl]pyrimidin-2-ylamine]	0.45	0.98
CCCC(O)(c1cc(-c2c[nH]c3ncc(-c4cnn(C)c4)cc23)nc(N)n1)c1ccccc1F (stereo not shown) [A118, 1-{2-amino-6-[5-(1-methyl-1H-pyrazol-4-yl)-1H-pyrrolo[2,3-b]pyridin-3-yl]-pyrimidin-4-yl}-1-(2-fluorophenyl)butan-1-ol]	0.029	0.24
COCOC(C)(c1cc(-c2c[nH]c3ncc(-c4cnn(C)c4)cc23)nc(N)n1)c1ccccc1F (stereo not shown) [A119, 4-[1-(2-fluorophenyl)-1-methoxymethoxyethyl]-6-[5-(1-methyl-1H-pyrazol-4-yl)-1H-pyrrolo[2,3-b]pyridin-3-yl]pyrimidin-2-ylamine]	0.036	0.47
CC(O)(c1cccc(F)c1)c1cc(-c2c[nH]c3ncc(-c4cnn(C(C)(C)C)c4)cc23)nc(N)n1 (stereo not shown) [A120, 1-{2-amino-6-[5-(1-tert-butyl-1H-pyrazol-4-yl)-1H-pyrrolo[2,3-b]pyridin-3-yl]-pyrimidin-4-yl}-1-(3-fluorophenyl)ethanol]	0.25	1.1

From US8575163B2, “Pyrrolopyridinylpyrimidin-2-ylamine derivatives” (Merck Patent GmbH, priority 2009, dated 2013)
